For 5 compounds, EC50 results are on record in patent publication US20150225454A1, “TETRABRANCHED PEPTIDES AND ANALOGUES AS A NEW CLASS OF ANTIMICROBIALS AND THEIR PREPARATION THEREOF” (priority 2012, published 2015).

Where a SMILES comes first, the peptide text is derived from it. Bridges are numbered along the chain shown (N, C = ends). Roman numbers before positions name the chains, in order.

For the assay, the system named is IOBA-NHC cells. The format is cell-based, human. The note with it: 24 h. Here is the method:
IOBA-NHC cells were cultured under standard conditions (humidified atmosphere of 5% CO2 at 37° C.) in DMEM/F12 supplemented with 1 μg/ml bovine pancreas insulin, 2 ng/ml mouse epidermal growth factor, 0.1 μg/ml cholera toxin, […] hydrocortisone, 10% fetal bovine serum (FBS), 50 UI/ml penicillin, and 50 UI/ml streptomycin. Cells from passages 50-80 were used in all experiments. Every day, normal culture development was observed by phase-contrast microscopy. Cells were removed by gentle trypsin incubation at confluence and counted. They were seeded into 96 well culture plates (Corning, Schiphol-Rijk, The Netherlands) for microtitration analysis of flow cytotoxicity assay (˜10,000 cells/well). Cultures were kept at 37° C. for 24 h. Subconfluent cells (culture surface covering nearly 70%) were then exposed to various peptide concentrations (0.22-225 μM). Cytotoxicity was measured periodically using MultiTox-Fluor Multiplex assay kit (Promega, Wis., USA) by measuring the AFC fluorescence (λex=485 and λem=520 nm).
For orientation: EC50 means the concentration at which the effect is half-maximal. Low readings indicate greater potency, high ones weaker potency. On to `C[C@H](NC(=O)[C@H](C)NC(=O)[C@H](CCCCN)NC(=O)[C@H](CCCNC(=N)N)NC(=O)CNC(=O)[C@@H](N)CCCNC(=N)N)C(=O)N[C@@H](CCCNC(=N)N)C(=O)N[C@@H](CCCNC(=N)N)C(=O)NCCCC[C@H](NC(=O)[C@H](CCCNC(=N)N)NC(=O)[C@H](CCCNC(=N)N)NC(=O)[C@H](C)NC(=O)[C@H](C)NC(=O)[C@H](CCCCN)NC(=O)[C@H](CCCNC(=N)N)NC(=O)CNC(=O)[C@@H](N)CCCNC(=N)N)C(=O)NCCCC[C@H](NC(=O)[C@H](CCCCNC(=O)[C@H](CCCNC(=N)N)NC(=O)[C@H](CCCNC(=N)N)NC(=O)[C@H](C)NC(=O)[C@H](C)NC(=O)[C@H](CCCCN)NC(=O)[C@H](CCCNC(=N)N)NC(=O)CNC(=O)[C@@H](N)CCCNC(=N)N)NC(=O)[C@H](CCCNC(=N)N)NC(=O)[C@H](CCCNC(=N)N)NC(=O)[C@H](C)NC(=O)[C@H](C)NC(=O)[C@H](CCCCN)NC(=O)[C@H](CCCNC(=N)N)NC(=O)CNC(=O)[C@@H](N)CCCNC(=N)N)C(=O)N[C@@H](CCCCN)C(=O)O` [[(SEQ ID NO: 13)2K]2KK] (I: H-RGRKAARRKKK-OH / II: H-RGRKAARRK / III: H-RGRKAARR / IV: H-RGRKAARR; amide I:9-IV:C, I:10-II:C, II:9-III:C; N-terminus and C-terminus assumed), for which a half-maximal response (EC50) required 46 µM.

The compound `CC(C)[C@H](NC(=O)[C@H](CCCCN)NC(=O)[C@H](CCCNC(=N)N)NC(=O)[C@H](C)NC(=O)[C@@H](N)CCCNC(=N)N)C(=O)N[C@H](C(=O)N[C@@H](CCCNC(=N)N)C(=O)N[C@@H](CCCNC(=N)N)C(=O)NCCCC[C@H](NC(=O)[C@H](CCCNC(=N)N)NC(=O)[C@H](CCCNC(=N)N)NC(=O)[C@@H](NC(=O)[C@@H](NC(=O)[C@H](CCCCN)NC(=O)[C@H](CCCNC(=N)N)NC(=O)[C@H](C)NC(=O)[C@@H](N)CCCNC(=N)N)C(C)C)C(C)C)C(=O)NCCCC[C@H](NC(=O)[C@H](CCCCNC(=O)[C@H](CCCNC(=N)N)NC(=O)[C@H](CCCNC(=N)N)NC(=O)[C@@H](NC(=O)[C@@H](NC(=O)[C@H](CCCCN)NC(=O)[C@H](CCCNC(=N)N)NC(=O)[C@H](C)NC(=O)[C@@H](N)CCCNC(=N)N)C(C)C)C(C)C)NC(=O)[C@H](CCCNC(=N)N)NC(=O)[C@H](CCCNC(=N)N)NC(=O)[C@@H](NC(=O)[C@@H](NC(=O)[C@H](CCCCN)NC(=O)[C@H](CCCNC(=N)N)NC(=O)[C@H](C)NC(=O)[C@@H](N)CCCNC(=N)N)C(C)C)C(C)C)C(=O)N[C@@H](CCCCN)C(=O)O)C(C)C` [Peptide B4010-G2A] (I: H-RARKVVRRKKK-OH / II: H-RARKVVRRK / III: H-RARKVVRR / IV: H-RARKVVRR; amide I:9-IV:C, I:10-II:C, II:9-III:C) showed an EC50 of 110 µM.

`CC(C)[C@H](NC(=O)[C@H](C)NC(=O)[C@H](C)NC(=O)CNC(=O)[C@@H](N)CCCNC(=N)N)C(=O)N[C@H](C(=O)N[C@@H](CCCNC(=N)N)C(=O)N[C@@H](CCCNC(=N)N)C(=O)NCCCC[C@H](NC(=O)[C@H](CCCNC(=N)N)NC(=O)[C@H](CCCNC(=N)N)NC(=O)[C@@H](NC(=O)[C@@H](NC(=O)[C@H](C)NC(=O)[C@H](C)NC(=O)CNC(=O)[C@@H](N)CCCNC(=N)N)C(C)C)C(C)C)C(=O)NCCCC[C@H](NC(=O)[C@H](CCCCNC(=O)[C@H](CCCNC(=N)N)NC(=O)[C@H](CCCNC(=N)N)NC(=O)[C@@H](NC(=O)[C@@H](NC(=O)[C@H](C)NC(=O)[C@H](C)NC(=O)CNC(=O)[C@@H](N)CCCNC(=N)N)C(C)C)C(C)C)NC(=O)[C@H](CCCNC(=N)N)NC(=O)[C@H](CCCNC(=N)N)NC(=O)[C@@H](NC(=O)[C@@H](NC(=O)[C@H](C)NC(=O)[C@H](C)NC(=O)CNC(=O)[C@@H](N)CCCNC(=N)N)C(C)C)C(C)C)C(=O)N[C@@H](CCCCN)C(=O)O)C(C)C` [[(SEQ ID NO: 10)2K]2KK] (I: H-RGAAVVRRKKK-OH / II: H-RGAAVVRRK / III: H-RGAAVVRR / IV: H-RGAAVVRR; amide I:9-IV:C, I:10-II:C, II:9-III:C; N-terminus and C-terminus assumed) yielded an EC50 of 250 µM.

In the case of `C[C@H](NC(=O)[C@H](C)NC(=O)[C@H](C)NC(=O)[C@H](C)NC(=O)[C@H](CCCCN)NC(=O)[C@H](CCCNC(=N)N)NC(=O)CNC(=O)[C@@H](N)CCCNC(=N)N)C(=O)NCCCC[C@H](NC(=O)[C@H](C)NC(=O)[C@H](C)NC(=O)[C@H](C)NC(=O)[C@H](C)NC(=O)[C@H](CCCCN)NC(=O)[C@H](CCCNC(=N)N)NC(=O)CNC(=O)[C@@H](N)CCCNC(=N)N)C(=O)NCCCC[C@H](NC(=O)[C@H](CCCCNC(=O)[C@H](C)NC(=O)[C@H](C)NC(=O)[C@H](C)NC(=O)[C@H](C)NC(=O)[C@H](CCCCN)NC(=O)[C@H](CCCNC(=N)N)NC(=O)CNC(=O)[C@@H](N)CCCNC(=N)N)NC(=O)[C@H](C)NC(=O)[C@H](C)NC(=O)[C@H](C)NC(=O)[C@H](C)NC(=O)[C@H](CCCCN)NC(=O)[C@H](CCCNC(=N)N)NC(=O)CNC(=O)[C@@H](N)CCCNC(=N)N)C(=O)N[C@@H](CCCCN)C(=O)O` [[(SEQ ID NO: 18)2K]2KK] (I: H-RGRKAAAAKKK-OH / II: H-RGRKAAAAK / III: H-RGRKAAAA / IV: H-RGRKAAAA; amide I:9-IV:C, I:10-II:C, II:9-III:C; N-terminus and C-terminus assumed), the EC50 is > 273 µM.

Regarding `CC(C)[C@H](NC(=O)[C@H](C)NC(=O)[C@H](CCCCN)NC(=O)[C@H](CCCNC(=N)N)NC(=O)CNC(=O)[C@@H](N)CCCNC(=N)N)C(=O)N[C@@H](CCCNC(=N)N)C(=O)N[C@@H](CCCNC(=N)N)C(=O)NCCCC[C@H](NC(=O)[C@H](CCCNC(=N)N)NC(=O)[C@H](CCCNC(=N)N)NC(=O)[C@@H](NC(=O)[C@H](C)NC(=O)[C@H](CCCCN)NC(=O)[C@H](CCCNC(=N)N)NC(=O)CNC(=O)[C@@H](N)CCCNC(=N)N)C(C)C)C(=O)NCCCC[C@H](NC(=O)[C@H](CCCCNC(=O)[C@H](CCCNC(=N)N)NC(=O)[C@H](CCCNC(=N)N)NC(=O)[C@@H](NC(=O)[C@H](C)NC(=O)[C@H](CCCCN)NC(=O)[C@H](CCCNC(=N)N)NC(=O)CNC(=O)[C@@H](N)CCCNC(=N)N)C(C)C)NC(=O)[C@H](CCCNC(=N)N)NC(=O)[C@H](CCCNC(=N)N)NC(=O)[C@@H](NC(=O)[C@H](C)NC(=O)[C@H](CCCCN)NC(=O)[C@H](CCCNC(=N)N)NC(=O)CNC(=O)[C@@H](N)CCCNC(=N)N)C(C)C)C(=O)N[C@@H](CCCCN)C(=O)O` [Peptide B4010-V5A] (I: H-RGRKAVRRKKK-OH / II: H-RGRKAVRRK / III: H-RGRKAVRR / IV: H-RGRKAVRR; amide I:9-IV:C, I:10-II:C, II:9-III:C), the EC50 came to 190 µM.
